# ChEMBL document CHEMBL4261651, “Probing the ligand preferences of the three types of bacterial pantothenate kinase” (Bioorg Med Chem, 2018)
# Key:
# [1] = system: Staphylococcus aureus; experiment: Growth inhibition of Staphylococcus aureus ATCC 29213 at 860 uM after 16 hrs by broth microdilution method; type: functional; conditions: ATCC 29213, 16 h, read-out: GI
# [2] = system: Staphylococcus aureus; experiment: Growth inhibition of Staphylococcus aureus ATCC 29213 at 1000 uM after 16 hrs by broth microdilution method; type: functional; conditions: ATCC 29213, 16 h, read-out: GI
# [3] = system: Staphylococcus aureus; experiment: Growth inhibition of Staphylococcus aureus ATCC 29213 at 820 uM after 16 hrs by broth microdilution method; type: functional; conditions: ATCC 29213, 16 h, read-out: GI
# [4] = system: Staphylococcus aureus; experiment: Antibacterial activity against Staphylococcus aureus ATCC 29213 after 16 hrs by broth microdilution method; type: functional; conditions: ATCC 29213, 16 h
# [5] = target: T1, Type III pantothenate kinase (Bacillus anthracis, UniProt Q81VX4); experiment: Inhibition of Bacillus anthracis pantothenate kinase 3
# T1 sequence (Q81VX4 whole entry): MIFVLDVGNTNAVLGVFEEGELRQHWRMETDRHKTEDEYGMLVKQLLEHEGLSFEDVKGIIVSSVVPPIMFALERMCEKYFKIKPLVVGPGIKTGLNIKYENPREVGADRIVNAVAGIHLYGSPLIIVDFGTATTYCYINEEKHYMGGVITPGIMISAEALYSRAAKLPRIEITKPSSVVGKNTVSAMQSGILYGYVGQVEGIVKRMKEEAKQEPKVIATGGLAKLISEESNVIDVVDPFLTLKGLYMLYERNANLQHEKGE
# [6] = system: Staphylococcus aureus; experiment: Growth inhibition of Staphylococcus aureus ATCC 29213 at 1230 uM after 16 hrs by broth microdilution method; type: functional; conditions: ATCC 29213, 16 h, read-out: GI
# [7] = system: Staphylococcus aureus; experiment: Growth inhibition of Staphylococcus aureus ATCC 29213 at 1540 uM after 16 hrs by broth microdilution method; type: functional; conditions: ATCC 29213, 16 h, read-out: GI
# [8] = system: Staphylococcus aureus; experiment: Growth inhibition of Staphylococcus aureus ATCC 29213 at 550 uM after 16 hrs by broth microdilution method; type: functional; conditions: ATCC 29213, 16 h, read-out: GI
compound,measurement,setting,value
CCCCCn1cc(CCNC(=O)[C@H](O)C(C)(C)CO)nn1,inhibition of growth at 860 µM,[1],99%
COC(=O)CNC(=O)[C@H](O)C(C)(C)CO,inhibition of growth at 1000 µM,[2],84%
CCCCCc1cn(CCNC(=O)[C@H](O)C(C)(C)CO)nn1,inhibition of growth at 820 µM,[3],72%
CCCCCNC(=O)CCNC(=O)[C@H](O)C(C)(C)CO,MIC,[4],14 µM
Nc1ncnc2c1ncn2[C@@H]1O[C@H](Cn2cc(CO[C@@H]3O[C@H](CO)[C@H](O)[C@H](O)[C@H]3O)nn2)[C@@H](O)[C@H]1O,Ki,[5],164 µM
O=C(O)CCNC(=O)[C@H](O)CCO,inhibition of growth at 1230 µM,[6],9%
CC(C)(CO)[C@@H](O)C(=O)NCc1cn(CCc2ccccc2)nn1,inhibition of growth at 1540 µM,[7],2%
CCCc1cn(CCCNC(=O)[C@H](O)C(C)(C)CO)nn1,inhibition of growth at 860 µM,[1],-13%
CC(C)(CO)[C@@H](O)C(=O)NCCCC(=O)O [HOPANTENIC ACID],inhibition of growth at 1000 µM,[2],87%
COC(=O)CCCNC(=O)[C@H](O)C(C)(C)CO,inhibition of growth at 1000 µM,[2],16%
COC(=O)CCNC(=O)[C@H](O)C(C)(C)CO,inhibition of growth at 1000 µM,[2],15%
CCCCn1cc(CCNC(=O)[C@H](O)C(C)(C)CO)nn1,inhibition of growth at 550 µM,[8],86%
CC(C)(CO)[C@@H](O)C(=O)NCC(=O)O,inhibition of growth at 1000 µM,[2],18%
CCCCCn1cc(CNC(=O)[C@H](O)C(C)(C)CO)nn1,inhibition of growth at 860 µM,[1],-5%
